The source of these data is PMC8518382, “Identification of a Bromodomain‐like Region in 15‐Lipoxygenase‐1 Explains Its Nuclear Localization” (Angewandte Chemie (International Ed. in English), 2021).

Bounds are passed on as bounds.

Assay [1] deals with T1, 5-LOX (Homo sapiens, UniProt P09917).
T1 construct: the endogenous LOXs were captured on an anti‐LOX antibody precoated 96‐well plate; endogenous in cells; host or cells: A549 cell lysate
T1 sequence (P09917 1-674): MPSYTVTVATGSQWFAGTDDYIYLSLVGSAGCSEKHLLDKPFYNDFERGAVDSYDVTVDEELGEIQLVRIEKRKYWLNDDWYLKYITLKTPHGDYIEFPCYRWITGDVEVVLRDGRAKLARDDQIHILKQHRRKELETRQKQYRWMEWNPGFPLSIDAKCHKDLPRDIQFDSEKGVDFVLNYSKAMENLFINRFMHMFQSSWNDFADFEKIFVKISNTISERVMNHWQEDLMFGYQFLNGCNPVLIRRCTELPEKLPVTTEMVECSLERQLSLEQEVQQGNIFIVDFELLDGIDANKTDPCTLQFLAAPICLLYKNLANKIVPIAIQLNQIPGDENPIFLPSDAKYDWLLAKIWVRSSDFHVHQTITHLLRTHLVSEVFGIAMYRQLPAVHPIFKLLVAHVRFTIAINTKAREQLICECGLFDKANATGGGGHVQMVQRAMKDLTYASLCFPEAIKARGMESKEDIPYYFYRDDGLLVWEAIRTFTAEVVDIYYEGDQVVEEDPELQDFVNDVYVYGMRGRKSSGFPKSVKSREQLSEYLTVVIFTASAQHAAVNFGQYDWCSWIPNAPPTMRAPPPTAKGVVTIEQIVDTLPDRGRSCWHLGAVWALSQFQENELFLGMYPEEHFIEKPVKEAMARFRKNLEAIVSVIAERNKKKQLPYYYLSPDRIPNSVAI
The assay is described as follows: ABP-based ELISA assay with A549 cell lysate, 5-LOX. The format is biochemical. The method, then: (§1) A549 cell lysate was treated with a serial dilution of the respective inhibitor. Subsequently, samples were labeled by treatment with 1 μM of Labelox B for 1 min. […] Data are mean±s.d., n≥3 independent experiments. […]
(§2) 1.6. Immunoblotting Analysis […]
(§3) 1.7. ABPP-based LOX inhibitor specificity validation
(§4) A549 cells were lysed by RIPA buffer supplemented with 1x PIC. After sonication and centrifugation, the supernatant was collected, and the protein concentration was determined by a Pierce BCA Protein Assay Kit (Thermo Fisher Scientific, USA). The lysates were then diluted with PBS to 300 ng/µl and stored in -20°C. To label endogenous LOXs with Labelox B under the competition condition, 180 µl diluted lysates were incubated with 200 µl different LOX inhibitor solution (in PBS) with desired concentrations for 18 min to inhibit LOXs activity. Later, 20 µl of a 20 µM Labelox B (in PBS) was added and incubated shortly for 2 min, followed by adding 50 µl of a 0.5 M EDTA to stop the labeling reaction. The reaction mixture was 450 µl in total. Inhibitors and Labelox B were absent in positive and […]
(§5) negative control, respectively. To detect the competition labeling of Labelox B among different LOXs, a high-binding 96-well plate (Greiner, #M4561) was coated with 5-LOX (#ab169755, Abcam), 12-LOX […]
(§6) (1:500 dilution in PBS) for overnight at 4°C. After washing triply with 0.05%PBST, the plate was blocked with 2% (w/v) BSA in PBST. Subsequently, 100 µl of each reaction mixture was added to the LOX-antibody-coated wells. There are four LOX antibodies used for coating. Therefore, in total, 400 µl mixture is needed for each reaction. After one hour of incubation, LOXs were pulled down by antibodies accordingly. Next, 100 µl of HRP-conjugated streptavidin (1:2000 dilution in PBS, Thermo Fisher Scientific, USA) was added to each well to detect the D04 labeled LOXs among precipitated LOXs. After washing with PBST, 100 µl of mixed HRP substrate reagent (R&D Systems, Minneapolis, USA) was added, and the colorizing reaction was stopped by adding 100 µl of 1M sulfuric acid. The absorbance at […]
On the technique in general: In an ELISA, binding on a coated surface is turned into a signal by an enzyme label.

The target in assay [2] is T2, 15-LOX-1 (Homo sapiens, UniProt P16050).
T2 sequence (P16050 1-662): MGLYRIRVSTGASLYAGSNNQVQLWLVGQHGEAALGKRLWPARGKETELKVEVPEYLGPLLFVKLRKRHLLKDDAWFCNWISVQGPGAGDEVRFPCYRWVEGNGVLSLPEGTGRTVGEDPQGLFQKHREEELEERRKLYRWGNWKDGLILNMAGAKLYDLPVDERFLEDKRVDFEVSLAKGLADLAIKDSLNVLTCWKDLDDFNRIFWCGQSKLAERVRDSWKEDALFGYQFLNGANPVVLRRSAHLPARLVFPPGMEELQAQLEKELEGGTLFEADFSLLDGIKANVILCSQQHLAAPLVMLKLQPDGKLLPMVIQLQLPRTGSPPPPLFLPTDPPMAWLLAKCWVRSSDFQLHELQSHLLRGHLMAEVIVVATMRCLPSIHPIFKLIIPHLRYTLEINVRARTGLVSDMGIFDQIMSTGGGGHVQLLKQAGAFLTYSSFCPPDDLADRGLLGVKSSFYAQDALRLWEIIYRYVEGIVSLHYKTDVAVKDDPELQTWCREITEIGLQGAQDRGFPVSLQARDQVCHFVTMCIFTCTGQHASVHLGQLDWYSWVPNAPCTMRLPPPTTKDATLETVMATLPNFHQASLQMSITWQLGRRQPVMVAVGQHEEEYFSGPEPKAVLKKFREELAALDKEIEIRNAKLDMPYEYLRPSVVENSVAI
The assay is described as follows: ABP-based ELISA assay with A549 cell lysate, 15-LOX-1. Set-up: the endogenous LOXs were captured on an anti‐LOX antibody precoated 96‐well plate; endogenous in cells; host or cells: A549 cell lysate. The format is biochemical. As for the experimental part: as §1, §2, §3, §4, §5, §6

In assay [3] the target is T3, 12-LOX (Homo sapiens, UniProt P18054).
T3 construct: the endogenous LOXs were captured on an anti‐LOX antibody precoated 96‐well plate; endogenous in cells; host or cells: A549 cell lysate
T3 sequence (P18054 1-663): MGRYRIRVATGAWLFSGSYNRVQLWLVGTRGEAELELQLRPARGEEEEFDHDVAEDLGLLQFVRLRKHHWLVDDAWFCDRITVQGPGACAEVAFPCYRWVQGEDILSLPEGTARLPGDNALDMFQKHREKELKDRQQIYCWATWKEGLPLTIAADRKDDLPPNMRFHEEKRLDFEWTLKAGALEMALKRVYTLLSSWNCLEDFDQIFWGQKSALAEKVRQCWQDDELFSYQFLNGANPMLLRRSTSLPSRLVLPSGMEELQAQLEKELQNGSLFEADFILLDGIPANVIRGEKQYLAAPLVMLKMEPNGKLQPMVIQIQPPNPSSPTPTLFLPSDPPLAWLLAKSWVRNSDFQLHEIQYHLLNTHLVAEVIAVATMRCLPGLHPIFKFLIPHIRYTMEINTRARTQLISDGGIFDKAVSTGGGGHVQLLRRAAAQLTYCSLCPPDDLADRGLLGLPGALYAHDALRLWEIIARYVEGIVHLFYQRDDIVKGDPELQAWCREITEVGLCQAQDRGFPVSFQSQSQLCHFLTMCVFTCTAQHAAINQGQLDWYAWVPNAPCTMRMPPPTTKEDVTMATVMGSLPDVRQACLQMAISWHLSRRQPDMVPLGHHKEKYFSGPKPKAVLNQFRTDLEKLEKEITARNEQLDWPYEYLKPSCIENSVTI
The assay is described as follows: ABP-based ELISA assay with A549 cell lysate, 12-LOX. The format is biochemical. As for the experimental part:
as §1, §2, §3, §4, §5, §6

For assay [4], the target named is H3K4Ac peptide. The assay is described as follows: ELISA; ELISA formatted binding study between histone H3 peptides and 15‐LOX‐1; concentrations up to 20 μM; Hill‐slopes equal 1; not told which partner was immobilised.
In assay [5] the target is H3K56Ac peptide. The assay is described as above.

For the molecule `CC(c1cc2ccccc2s1)N(O)C(N)=O` (stereo not drawn) [Zileuton], the results for the “HillSlope Value” in assay [1] and in assay [3] were -0.48 and -0.47, respectively. In addition, the “Effect on ABP labeling” value in assay [2] is recorded as “little or no effect”. Moreover, it took 554 µM to reach half-maximal inhibition in assay [3] (1 μM Labelox B) (IC50).

On to “recombinant 15‐LOX‐1 (from UniProt P16050 1-662) (enzyme)”, for which the equilibrium dissociation constant (Kd) (commonly the equilibrium constant for the complex coming apart) is greater than 20 µM in assay [4] and 1.65 µM in assay [5].
